Laboratory results taken from US20260306464A1, “LINAPRAZAN GLURATE FOR TREATING GASTROESOPHAGEAL REFLUX DISEASE (GERD)” (Cinclus Pharma Holding AB (publ), priority 2023, published 2026).

Legend:
[1] = system: intragastric pH; experiment: 48-hour intragastric pH-metry, Phase 1 exploratory dose-finding study in healthy subjects; assay type: in vivo, human; settings: for Hours with pH >4 (Mean (SD)) / Hours with pH >4 (Median (min, max)) / Percentage of time with pH >4 (Mean) / Percentage of time with pH >4 (Median (min, max)): healthy subjects
From the text: The study was a single-centre, open-label, parallel-group, randomised exploratory dose-finding study designed to evaluate the PK, PD, safety and tolerability of repeated oral doses of linaprazan glurate (LG) at 3 dose levels, in healthy male and female subjects. About 36 subjects were randomised for an estimated total of 12 evaluable subjects per treatment arm.
Subjects came to the clinic for 3 visits. The screening (Visit 1) took place from Day −28 to Day −1 and included an eligibility check and review of health status. At Visit 2, subjects were admitted to the clinic on Day −1 and remained at the clinic until Day 4 for repeated dose of LG administration and safety, PK and PD assessments. The subjects fasted for at least 8 hours before the anticipated dosing time on Day 1. Water, but no other drinks, was allowed as desired except for 1 hour before and 30 minutes after dosing. In the morning of Day 1, subjects were randomised to one of 3 treatment arms: • LG 50 mg BID for 3 days (5 doses, last dose in the morning of Day 3) • LG 100 mg (2×50 mg) BID for 3 days (5 doses, last dose in the morning of Day 3) • LG 150 mg (3×50 mg) BID for 3 days (5 doses, last dose in the morning of Day 3)
Subjects were carefully monitored by clinical staff during and after dosing. […] The pH-metry assessment was started prior to Dose 3 (in the morning of Day 2) and continued for 48 hours, until 24 hours post last dose. Vital signs and ECG were checked at regular intervals and PK sampling was done at selected timepoints. A final end-of-study visit (Visit 3) took place on Day 7 (±2) or after early withdrawal. Each subject was expected to participate in the study for approximately 7 days from the day of randomisation (Day 1, Visit 2) to the End-of Study Visit. The Screening Visit was performed within 28 days prior to randomisation (Day −28 to Day −1).

[2] = LEED study: safety and tolerability (adverse events); settings: for COVID-19 (%) / COVID-19 events / Constipation (%) / Constipation events / Headache (%) / Headache events / Nausea (%) / Nausea events: TEAE
[3] = 50 mg LG, 1 last dose in the morning (Day 3, "QD")
[4] = 50 mg LG, 2 doses (Day 2, BID), oral
[5] = 100 mg LG, 1 last dose in the morning (Day 3, "QD")
[6] = 100 mg LG, 2 doses (Day 2, BID), oral
[7] = 150 mg LG, 1 last dose in the morning (Day 3, "QD")
[8] = 150 mg LG, 2 doses (Day 2, BID), oral
[9] = 100 or 150 mg, two daily doses (Day 2) vs once daily (Day 3)

Cc1cccc(C)c1CNc1cc(C(=O)NCCOC(=O)CCCC(=O)O)cn2c(C)c(C)nc12 [linaprazan glurate, 5-{2-[({8-[(2,6-dimethylbenzyl)amino]-2,3-dimethylimidazo[1,2-a]pyridine-6-yl}carbonyl)-amino]ethoxy}-5-oxopentanoic acid]
Hours with pH >4 (Mean (SD)) [1, 3]: 17.04 (5.33) hours
Hours with pH >4 (Median (min, max)) [1, 3]: 15.80 (6.8, 23.8) hours
Percentage of time with pH >4 (Mean) [1, 3]: 71.15%
Percentage of time with pH >4 (Median (min, max)) [1, 3]: 65.90 (28.6, 99.8) %
Hours with pH >4 (Mean (SD)) [1, 4]: 15.47 (4.83) hours
Hours with pH >4 (Median (min, max)) [1, 4]: 15.65 (8.5, 23.8) hours
Percentage of time with pH >4 (Mean) [1, 4]: 64.48%
Percentage of time with pH >4 (Median (min, max)) [1, 4]: 65.20 (35.4, 99.1) %
Hours with pH >4 (Mean (SD)) [1, 5]: 18.38 (3.84) hours
Hours with pH >4 (Median (min, max)) [1, 5]: 19.30 (11.6, 23.5) hours
Percentage of time with pH >4 (Mean) [1, 5]: 76.81%
Percentage of time with pH >4 (Median (min, max)) [1, 5]: 80.50 (48.9, 97.8) %
Hours with pH >4 (Mean (SD)) [1, 6]: 18.93 (4.83) hours
Hours with pH >4 (Median (min, max)) [1, 6]: 21.30 (7.0, 22.8) hours
Percentage of time with pH >4 (Mean) [1, 6]: 78.85%
Percentage of time with pH >4 (Median (min, max)) [1, 6]: 88.70 (29.1, 95.0) %
Hours with pH >4 (Mean (SD)) [1, 7]: 20.38 (3.51) hours
Hours with pH >4 (Median (min, max)) [1, 7]: 21.05 (15.5, 24.0) hours
Percentage of time with pH >4 (Mean) [1, 7]: 85.14%
Percentage of time with pH >4 (Median (min, max)) [1, 7]: 88.00 (64.9, 99.8) %
Hours with pH >4 (Mean (SD)) [1, 8]: 22.00 (2.60) hours
Hours with pH >4 (Median (min, max)) [1, 8]: 23.05 (16.6, 24.0) hours
Percentage of time with pH >4 (Mean) [1, 8]: 91.64%
Percentage of time with pH >4 (Median (min, max)) [1, 8]: 96.05 (69.3, 99.8) %
additional hours with pH>4 (median), BID vs QD [1, 9]: about two
longer time with pH>4, BID vs QD [1, 9]: about 10%
safety data vs lansoprazole ([2]; LG 25-100 mg BID): comparable to that of lansoprazole
tolerability ([2]; LG 25-100 mg BID): generally well tolerated
COVID-19 (%) ([2]; LG 25 mg BID): 2.0%
COVID-19 events ([2]; LG 25 mg BID): 1 events
Constipation (%) ([2]; LG 25 mg BID): 3.9%
Constipation events ([2]; LG 25 mg BID): 2 events
Headache (%) ([2]; LG 25 mg BID): 2.0%
Headache events ([2]; LG 25 mg BID): 1 events
Nausea (%) ([2]; LG 25 mg BID): 2.0%
Nausea events ([2]; LG 25 mg BID): 1 events
COVID-19 (%) ([2]; LG 50 mg BID): 4.2%
COVID-19 events ([2]; LG 50 mg BID): 2 events
Constipation (%) ([2]; LG 50 mg BID): 2.1%
Constipation events ([2]; LG 50 mg BID): 1 events
Headache (%) ([2]; LG 50 mg BID): 6.3%
Headache events ([2]; LG 50 mg BID): 3 events
Nausea (%) ([2]; LG 50 mg BID): 0.0%
Nausea events ([2]; LG 50 mg BID): 0 events
COVID-19 (%) ([2]; LG 75 mg BID): 1.9%
COVID-19 events ([2]; LG 75 mg BID): 1 events
Constipation (%) ([2]; LG 75 mg BID): 3.8%
Constipation events ([2]; LG 75 mg BID): 2 events
Headache (%) ([2]; LG 75 mg BID): 1.9%
Headache events ([2]; LG 75 mg BID): 1 events
Nausea (%) ([2]; LG 75 mg BID): 0.0%
Nausea events ([2]; LG 75 mg BID): 0 events
COVID-19 (%) ([2]; LG 100 mg BID): 8.5%
COVID-19 events ([2]; LG 100 mg BID): 4 events
Constipation (%) ([2]; LG 100 mg BID): 0.0%
Constipation events ([2]; LG 100 mg BID): 0 events
Headache (%) ([2]; LG 100 mg BID): 2.1%
Headache events ([2]; LG 100 mg BID): 1 events
Nausea (%) ([2]; LG 100 mg BID): 0.0%
Nausea events ([2]; LG 100 mg BID): 0 events
